# In ChEMBL document CHEMBL4364307, “2-(phenylthio)ethylidene derivatives as anti-Trypanosoma cruzi compounds: Structural design, synthesis and antiparasitic activity” (Eur J Med Chem, 2019):
# Activity calls are given as the source filed them. The calls are words filed in the database; no cut-off is given here.
# Assays:
# Cruzipain = Cruzipain (Trypanosoma cruzi, UniProt P25779); assay: Inhibition of Trypanosoma cruzi cruzain using Z-FR-AMC as substrate preincubated for 10 mins followed by substrate addition and measured for 5 mins by fluorimetric analysis
# Trypanosoma cruzi [1] = assay: Antitrypanosomal activity against bloodstream form of Trypanosoma cruzi trypomastigotes after 24 hrs by Neubauer chamber method; type: functional, organism-based
# Trypanosoma cruzi [2] = assay: Antitrypanosomal activity against Trypanosoma cruzi Dm28c epimastigotes after 5 days by Neubauer chamber method; type: functional, organism-based; details: 120 h
# [3] = Selectivity index, ratio of maximum non-toxic concentration for Balb/c mouse splenocyte to IC50 for bloodstream form of Trypanosoma cruzi trypomastigotes; type: toxicity; details: mouse splenocytes, read-out: Selectivity Index
# [4] = molecular target: Cruzipain (Trypanosoma cruzi) (UniProt P25779); assay: Inhibition of Trypanosoma cruzi cruzain at 100 uM using Z-FR-AMC as substrate preincubated for 10 mins followed by substrate addition and measured for 5 mins by fluorimetric analysis relative to control
# Trypanosoma cruzi [5] = assay: Induction of apoptosis in bloodstream form of Trypanosoma cruzi trypomastigotes at 0.25 mM after 24 hrs by annexin V-FITC/propidium iodide staining based flow cytometry relative to control; type: functional, organism-based
# Trypanosoma cruzi [6] = assay: Induction of apoptosis in bloodstream form of Trypanosoma cruzi trypomastigotes at 1.1 mM after 24 hrs by annexin V-FITC/propidium iodide staining based flow cytometry relative to control; type: functional, organism-based
# [7] = Cytotoxicity against Balb/c mouse splenocyte assessed as reduction in cell viability after 24 hrs by [3H]thymidine incorporation based beta scintillation counting analysis; details: mouse splenocytes
# Trypanosoma cruzi [8] = assay: Antitrypanosomal activity against Trypanosoma cruzi Y strain epimastigotes after 15 hrs by hemocytometer based cell counting method; type: functional, organism-based
# Trypanosoma cruzi [9] = assay: (§1) Antiparasitic activity against bloodstream form of Trypanosoma cruzi Y strain trypomastigotes infected in Balb/c mouse peritoneal macrophage assessed as reduction in percent of infected macrophages at 20 uM incubated for 6 hrs followed by replacement of fresh medium measured after 3 days by Giemsa-staining based optical microscopic analysis; type: functional, organism-based
# Trypanosoma cruzi [10] = assay: Antiparasitic activity against bloodstream form of Trypanosoma cruzi Y strain trypomastigotes infected in Balb/c mouse peritoneal macrophage at 20 uM incubated for 2 hrs followed by extracellular parasites wash out and measured after 2 hrs by Giemsa staining-based optical microscopic analysis
# Trypanosoma cruzi [11] = assay: Induction of morphological changes in Trypanosoma cruzi bloodstream trypomastigotes assessed as appearance of atypical vacuoles in cytoplasm at 3 uM after 24 hrs by TEM analysis; type: functional, organism-based
# Trypanosoma cruzi [12] = assay: as §1, with “in number” for “in percent”, “of amastigotes/100” for “of infected”; type: functional, organism-based
# Trypanosoma cruzi [13] = assay: Antiparasitic activity against bloodstream form of Trypanosoma cruzi Y strain trypomastigotes infected in Balb/c mouse peritoneal macrophage incubated for 6 hrs followed by replacement of fresh medium measured after 3 days by Giemsa-staining based optical microscopic analysis; type: functional, organism-based
# Trypanosoma cruzi [14] = assay: Induction of morphological changes in Trypanosoma cruzi bloodstream trypomastigotes assessed as disorganization of golgi complex at 3 uM after 24 hrs by TEM analysis; type: functional, organism-based
# Trypanosoma cruzi [15] = assay: Induction of morphological changes in Trypanosoma cruzi bloodstream trypomastigotes assessed as appearance myelin figures in cytoplasm at 3 uM after 24 hrs by TEM analysis; type: functional, organism-based
# Trypanosoma cruzi [16] = assay: Induction of morphological changes in Trypanosoma cruzi bloodstream trypomastigotes assessed as appearance of myelin figures in mitochondria at 3 uM after 24 hrs by TEM analysis; type: functional, organism-based
# Sequence of Cruzipain (Trypanosoma cruzi) (P25779 123-467 limits assumed): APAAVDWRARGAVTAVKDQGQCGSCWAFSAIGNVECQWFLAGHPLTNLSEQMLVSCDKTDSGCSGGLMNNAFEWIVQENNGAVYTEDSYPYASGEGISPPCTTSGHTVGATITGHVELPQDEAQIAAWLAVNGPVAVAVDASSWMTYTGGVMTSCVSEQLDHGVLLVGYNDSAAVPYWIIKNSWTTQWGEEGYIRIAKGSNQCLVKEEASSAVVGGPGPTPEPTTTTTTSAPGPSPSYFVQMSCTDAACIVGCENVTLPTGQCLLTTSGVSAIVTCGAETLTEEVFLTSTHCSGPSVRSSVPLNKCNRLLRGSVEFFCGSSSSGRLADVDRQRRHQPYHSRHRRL
# Sequence of Cruzipain (P25779 whole entry): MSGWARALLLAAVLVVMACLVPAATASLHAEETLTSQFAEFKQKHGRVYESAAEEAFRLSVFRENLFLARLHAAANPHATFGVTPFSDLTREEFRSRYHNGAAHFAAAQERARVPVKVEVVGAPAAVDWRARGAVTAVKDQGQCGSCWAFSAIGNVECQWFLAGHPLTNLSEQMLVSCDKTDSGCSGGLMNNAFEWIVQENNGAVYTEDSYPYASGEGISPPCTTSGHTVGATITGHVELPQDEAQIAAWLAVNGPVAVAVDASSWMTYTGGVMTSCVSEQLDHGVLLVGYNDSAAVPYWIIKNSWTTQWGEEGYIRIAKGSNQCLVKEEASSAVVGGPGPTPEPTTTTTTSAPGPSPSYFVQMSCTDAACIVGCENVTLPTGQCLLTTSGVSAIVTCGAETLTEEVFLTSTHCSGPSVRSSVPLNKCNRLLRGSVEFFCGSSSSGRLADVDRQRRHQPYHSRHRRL
SMILES,IC50 (Trypanosoma cruzi [1]) [µM],IC50 (Trypanosoma cruzi [2]) [µM],inhibition [4] [%],selectivity ratio [3],MNTC at 24 h [7] [µM],also measured
Cc1ccc(C)c(SC/C=N/NC(N)=S)c1,5.9,6.2,87.6,0.7,< 3.9,IC50 (Cruzipain): 3.3 µM; Activity (Trypanosoma cruzi [5]): Active; Activity (Trypanosoma cruzi [6]): Active
COc1ccc(-c2csc(N/N=C/CSc3ccccc3)n2)cc1,18.5,62.7,–,> 15.2,> 281,–
COc1ccc(SC/C=N/NC(N)=S)cc1,39.7,32.1,34.6,0.1,< 3.9,–
CC(C)C1S/C(=N/N=C/CSc2ccccc2)NC1=O (stereo not drawn),–,–,–,–,–,IC50 (Trypanosoma cruzi [8]): 0.3 µM
Cc1ccccc1SC/C=N/NC(N)=S,6.1,15.3,13.9,6.9,41.8,–
NC(=S)N/N=C/CSc1ccccc1Cl,6.2,47.7,46,0.6,< 3.8,–
O=C(Cn1ccnc1[N+](=O)[O-])NCc1ccccc1 [BENZNIDAZOLE],6.2,–,–,15.5,–,–
Cc1sc(N/N=C/CSc2ccccc2)nc1-c1ccc(Br)cc1,2.6,4.1,27,> 95.1,> 247,Activity (Trypanosoma cruzi [9]): Active; inhibition (Trypanosoma cruzi [10]): Active; Activity (Trypanosoma cruzi [11]): Active; Activity (Trypanosoma cruzi [12]): Active; Activity (Trypanosoma cruzi [5]): Active; IC50 (Trypanosoma cruzi [13]): 10.2 µM; Activity (Trypanosoma cruzi [6]): Active; Activity (Trypanosoma cruzi [14]): Active; Activity (Trypanosoma cruzi [15]): Active; Activity (Trypanosoma cruzi [16]): Active
C/C(COc1ccccc1)=N\Nc1nc(-c2ccncc2)cs1,3.9,4,–,–,–,–
NC(=S)N/N=C/CSc1ccc(Br)cc1,6.6,15.4,16.6,0.5,< 3.3,Activity (Trypanosoma cruzi [5]): Active; Activity (Trypanosoma cruzi [6]): Active
Clc1ccc(-c2csc(N/N=C/CSc3ccccc3)n2)cc1,4.1,6.8,17.6,> 67.8,> 278,Activity (Trypanosoma cruzi [9]): Active; inhibition (Trypanosoma cruzi [10]): Active; Activity (Trypanosoma cruzi [12]): Active; Activity (Trypanosoma cruzi [5]): Active; IC50 (Trypanosoma cruzi [13]): 7.88 µM; Activity (Trypanosoma cruzi [6]): Active
O=[N+]([O-])c1ccc(-c2csc(N/N=C/CSc3ccccc3)n2)cc1,8.4,16,18.9,8,67.5,Activity (Trypanosoma cruzi [9]): Active; Activity (Trypanosoma cruzi [12]): Active; IC50 (Trypanosoma cruzi [13]): 19.3 µM
NC(=S)N/N=C/CSc1ccccc1,89,102,42.1,0.25,–,–
Brc1ccc(-c2csc(N/N=C/CSc3ccccc3)n2)cc1,14.3,5.4,7,> 16.7,> 239,–
NC(=S)N/N=C/CSc1ccc(Cl)cc1,14.1,6.2,25.2,0.3,< 3.8,–
Cc1ccc(-c2csc(N/N=C/CSc3ccccc3)n2)cc1,5.7,9.4,11.9,25.8,147,Activity (Trypanosoma cruzi [9]): Active; Activity (Trypanosoma cruzi [12]): Active; Activity (Trypanosoma cruzi [5]): Active; IC50 (Trypanosoma cruzi [13]): 18.8 µM; Activity (Trypanosoma cruzi [6]): Active

# More lines, main results first:
IC50 (Trypanosoma cruzi [1]) [µM],IC50 (Trypanosoma cruzi [2]) [µM],inhibition [4] [%],SMILES,selectivity ratio [3],MNTC at 24 h [7] [µM],also measured
5.7,6.1,27.5,NC(=S)N/N=C/CSc1ccc(F)cc1,3.6,20.5,–
14.1,5.5,75.9,NC(=S)N/N=C/CSc1cccc(Cl)c1,6.8,96.2,IC50 (Cruzipain): 19 µM
–,9.6,31.4,Cc1ccc(SC/C=N/NC(N)=S)cc1,–,4.2,–
41.7,–,22.9,Fc1ccc(-c2csc(N/N=C/CSc3ccccc3)n2)cc1,> 7,> 291,–
8.2,6.1,37.4,NC(=S)N/N=C/CSc1cc(Cl)ccc1Cl,10.4,85,–
–,49.8,–,C/C(COc1ccccc1)=N\Nc1nc(-c2ccc(Br)cc2)cs1,–,–,–
19.2,8.4,16.2,O=[N+]([O-])c1cccc(-c2csc(N/N=C/CSc3ccccc3)n2)c1,7,135,–
15.2,56.5,62.9,Clc1ccc(-c2csc(N/N=C/CSc3ccccc3)n2)cc1Cl,8.3,127,–
4.1,7.9,67.2,Clc1ccc(-c2csc(N/N=C/CSc3ccccc3)n2)c(Cl)c1,30.9,127,Activity (Trypanosoma cruzi [5]): Active; Activity (Trypanosoma cruzi [6]): Active
3.8,4,–,C/C(COc1ccccc1)=N\Nc1nc(-c2cccc([N+](=O)[O-])c2)cs1,–,–,–
5.2,59.4,–,C(/CSc1ccccc1)=N\Nc1nc(-c2ccccc2)cs1,29.5,154,Activity (Trypanosoma cruzi [5]): Active; Activity (Trypanosoma cruzi [6]): Active
1.8,6.3,43.4,Cc1cccc(SC/C=N/NC(N)=S)c1,2.3,< 4.2,Activity (Trypanosoma cruzi [5]): Active; Activity (Trypanosoma cruzi [6]): Active
